According to patent publication EP0419676B1, “THIONAPHTHALENE DERIVATIVES, METHOD OF PRODUCING THE SAME, AND ANTIALLERGIC AGENT CONTAINING THE SAME” (TEIJIN LIMITED, priority 1989, dated 1990):
Read-outs that look alike come from different tables or passages of the source.

How the values were obtained:
[1] = test system: anti-TNP IgE antibody production; assay: IgE antibody production suppressive effect: anti-TNP IgE production by cultured spleen cells of TNP-KLH-immunized mouse; assay type: cell-based, BALB/C mouse; conditions: for Anti-TMP antibody production IgE, value in brackets (IgE production dependency on the antigen) / Anti-TMP antibody production IgE: TNP-KLH 10 ng/ml; for Anti-TMP antibody production IgE, value in brackets (IgE production dependency on the antigen): no addition 8.5; for Anti-TMP antibody production IgE: no addition 13.0
Experimental: (§1) An 8 weeks old BALB/C mouse (♀) was immunized by an intraperitoneal injection of 10 µg of TNP-KLH (trinitrophenyl-key hole limpet hemocyanine) and 2 mg of aluminum hydroxide gel, and after 3 weeks, 1 µg of TNP-KLH and 2 mg of aluminum hydroxide gel were boosted, and 4 weeks later, the spleen was enucleated.
(§2) The spleen cells (6 x 10⁶) were cultured together with 10 ng/ml of TNP-KLH, in the presence or non-presence of the compound of the present invention (10⁻⁵ to 10⁻⁷ M), in 1 ml of RPMI-1640 medium (containing 10% fetal bovine serum) for 2 days, followed by washing to remove the antigen and the drug, and the washed cells were resuspended in a fresh medium containing no antigen and further cultured for 5 days. All cultivations were performed under 5% CO₂ at 37°C. After completion of the culturing, the supernatant was recovered, and the concentration of anti-TNP IgE or anti-TNP IgG antibody was determined by an antigen and isotype specific immunoassay. […]
The values in the brackets ( ) indicate the values of the spontaneous IgE production amount observed when TNP-KLH was not added, and represent the IgE production dependency on the antigen.
(§3) The same experimental methods were used for the compounds shown below, and IgE antibody production suppressive effects were evaluated. […] (Exemplary compound VI - (1)): methyl (6,7-dimethoxy-2-naphthylthio)acetate (Exemplary compound V - (4)): N-(2-methoxycarbonylphenyl)-(6,7-dihydroxy-2-naphthylthio)acetamide (Exemplary compound V - (2)): N-tetrazolyl(6,7-dihydroxy-2-naphthylthio)acetamide Table 2

[2] = test system: anti-TNP IgG; assay: Anti-TNP IgG production by cultured spleen cells of TNP-KLH-immunized mouse; assay type: cell-based, BALB/C mouse; conditions: for Anti-TMP antibody production IgG: TNP-KLH 10 ng/ml, no addition 8.1
Experimental: as §1, §2, §3

[3] = test system: peritoneal mast cells of rat; assay: Histamine release from IgE-sensitized peritoneal mast cells, DNP-As antigen (allergic release); assay type: cell-based, Sprague-Dawley strain male rat
Experimental: (§4) To a Sprague-Dawley strain male rat (10 weeks or older) was intraperitoneally administered, under ether anesthesia, a diluted rat anti-DNP-As IgE serum at 2 ml/kg. After 16 hours, cells were recovered by washing intraperitoneally with a Tyrode solution containing 0.5% heparin (Ca⁺⁺, Mg⁺⁺, free). Mast cells (5 x 10⁴) separated by overlying in the 30% Ficoll/Tyrode solution and centrifugation were reliberated into the Tyrode solution (Ca⁺⁺, Mg⁺⁺) and incubated with the addition of the drug solution shown in Table 3-1, for 10 minutes, and then DNP-As and phosphatidylserine were added to final concentrations of 20 µg/ml and 25 µg/ml, respectively, followed by incubation for 10 minutes. The reaction was stopped by ice-cooling, and the histamine release in the supernatant was determined by fluorophotometry.

[4] = test system: peritoneal mast cells of rat; assay: Histamine release from peritoneal mast cells induced by Compound 48/80 (non-allergic release); assay type: cell-based, Sprague-Dawley strain male rat; conditions: for inhibition at 10 µM: 10⁻⁵ M
Experimental: as §4, with “fluorophotometry. Regarding the non-allergy release, 5 x 10⁴ of mast cells were investigated by incubation with 0.5 µg/ml of Compound 48/80 for 10 minutes, after the addition of the drug solution shown in Table 3-2.” for “fluorophotometry.”

[5] = test system: Rat homologous PCA reaction; assay: Rat homologous PCA reaction; assay type: in vivo, Sprague-Dawley strain male rat; conditions: p.o., 1 hour before antigen
Experimental: The back of a Sprague-Dawley strain male rat (6 - 8 w) was depilated, and at one site on both sides thereof, 0.1 ml of a rat anti-ovalbumin IgE serum diluted with physiological saline was intradermally injected under ether anesthesia. After 48 hours, 25 mg/kg of ovalbumin, 25 mg/kg of Evans Blue were intravenously administered to induce the PCA reaction, and after 30 minutes, the skin was peeled off, dipped in a mixture of 0.3% Na₂SO₄·10H₂O/Acetate (3:7), and the dye amount infiltrated was quantitated by absorbance at 620 nm. The drug listed in Table 4 was suspended in 5% gum arabic solution and orally administered 1 hour before the antigen administration.

[6] = molecular target: T1, Lipoxygenase (Homo sapiens, UniProt P09917); assay: Lipoxygenase inhibitory activity evaluation: LTB4 and 5-HETE production in A23187-stimulated whole blood; assay type: cell-based, healthy man; conditions: 10⁻⁵ M, A23187 25 µM
T1 construct: heparin-treated vein blood of a healthy person; from tissue; host or cells: human heparinised venous whole blood (leukocytes)
T1 sequence (P09917 1-674): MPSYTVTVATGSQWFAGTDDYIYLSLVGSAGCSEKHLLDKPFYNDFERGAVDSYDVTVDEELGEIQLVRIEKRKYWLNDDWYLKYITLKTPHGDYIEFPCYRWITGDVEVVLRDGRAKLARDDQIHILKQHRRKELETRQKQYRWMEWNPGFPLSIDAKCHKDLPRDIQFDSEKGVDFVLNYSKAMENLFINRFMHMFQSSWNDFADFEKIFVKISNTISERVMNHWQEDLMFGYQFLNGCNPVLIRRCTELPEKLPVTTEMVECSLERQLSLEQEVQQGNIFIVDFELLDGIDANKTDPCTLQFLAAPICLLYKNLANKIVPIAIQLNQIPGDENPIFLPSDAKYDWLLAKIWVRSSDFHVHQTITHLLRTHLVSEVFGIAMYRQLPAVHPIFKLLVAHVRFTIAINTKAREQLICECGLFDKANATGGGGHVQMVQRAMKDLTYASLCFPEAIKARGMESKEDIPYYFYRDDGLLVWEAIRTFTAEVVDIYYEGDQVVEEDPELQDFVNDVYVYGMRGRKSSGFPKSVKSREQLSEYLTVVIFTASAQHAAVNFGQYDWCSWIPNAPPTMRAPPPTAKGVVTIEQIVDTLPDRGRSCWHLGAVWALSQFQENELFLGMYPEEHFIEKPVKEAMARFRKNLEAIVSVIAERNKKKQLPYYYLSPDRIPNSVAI
Experimental: To 1 ml of heparin-treated vein blood of a healthy person without an administration of drugs was added 1 µl of a DMSO solution of the drug test sample listed in Table 5 (final 10⁻⁵ M), and after treatment at 37°C for 5 minutes, 5 µl of a DMSO solution of A23187 was added (final 25 µM) and the treatment carried out at 37°C for 15 minutes, followed by ice-cooling. After the addition of 10 µl of a DMSO solution of 100 ng of 15-HETE as the internal standard substance for quantitation, 0.8 ml of acetonitrile was added, and the precipitates formed were removed by centrifugation. Then, LTB₄ and 5-HETE in the supernatant were subjected to HPLC separation and quantitation (ref. F.J. Sweeney, et al., Prostaglandins Leukotrienes & Med., 28, 73 (1987)).

COC(=O)CSc1ccc2cc(O)c(O)cc2c1 [Exemplary compound IV-(1), Methyl (6,7-dihydroxy-2-naphthylthio)acetate]
suppression of anti-TNP IgE antibody production (in words) ([1]; 10⁻⁵ to 10⁻⁷ M): suppressed the anti-TNP IgE antibody production dose-dependency
Anti-TMP antibody production IgE, value in brackets (IgE production dependency on the antigen) ([1]; 10⁻⁶ M): 1.0 ng/mL
Anti-TMP antibody production IgE ([1]; 10⁻⁶ M): 5.5 ng/mL
Anti-TMP antibody production IgE, value in brackets (IgE production dependency on the antigen) ([1]; 10⁻⁷ M): 2.5 ng/mL
Anti-TMP antibody production IgE ([1]; 10⁻⁷ M): 7.5 ng/mL
suppressive ratio (antigen-dependent IgE production) ([1]; antigen-dependent IgE production compared with spontaneous IgE production): 70 - 90%
suppressive effect against the production of anti-TNP IgG (in words) [2]: substantially no suppressive effect
Anti-TMP antibody production IgG ([2]; 10⁻⁶ M): 7.3 µg/mL
Anti-TMP antibody production IgG ([2]; 10⁻⁷ M): 7.5 µg/mL
suppressive action against allergy histamine release (in words) [3]: suppressive actions
suppressive action against non-allergy histamine release (in words) [4]: weak suppressive actions
inhibition at 100 µM ([4]; Rattus norvegicus, Mast cell, 10 min, Experiment 1, 10⁻⁴ M, Compound 48/80 0.5 µg/ml, read-out: Inhibitory ratio (%) histamine release): 23%
inhibition at 10 µM ([4]; Rattus norvegicus, Mast cell, 10 min, Experiment 1, Compound 48/80 0.5 µg/ml, read-out: Inhibitory ratio (%) histamine release): 10.5%
inhibition at 1 µM ([4]; Rattus norvegicus, Mast cell, 10 min, Experiment 1, 10⁻⁶ M, Compound 48/80 0.5 µg/ml, read-out: Inhibitory ratio (%) histamine release): -1.9%
inhibition at 10 µM ([4]; Rattus norvegicus, Mast cell, 10 min, Experiment 2, Compound 48/80 0.5 µg/ml, read-out: Inhibitory ratio (%) histamine release): 2%
Suppressive ratio (%) Experiment 1 ([5]; 25 mg/kg): 14.8%
Suppressive ratio (%) Experiment 2 ([5]; 25 mg/kg): 24.2%
Suppressive ratio (%) Experiment 2 ([5]; 50 mg/kg): 31.3%
5-HETE (Inhibitory ratio %) [6]: 60%
LTB₄ (Inhibitory ratio %) [6]: 74%
Amount of LTB₄ produced ([6]; no addition 125): 32 ng/ml/plasma
Amount of 5-HETE produced ([6]; no addition 130): 52 ng/ml/plasma
